Measurements reported in patent US8791163B2 (McGill University, priority 2006, dated 2014).

Tests used:
[1] = tested on: Male Sprague-Dawley rats; assay: Forced Swimming Test (FST); assay type: in vivo, rat; settings: 5b 40 mg/kg i.p. 24, 5 and 1 hour prior to the test; vs vehicle
Text: The forced swimming test (FST), Open field Test (OFT) and the in vivo electrophysiology recording were employed to evaluate the anti-depressant activity, the anti-anxiety activity and the sleep promoting properties of the compounds of the present invention [compounds of Formula (I)]. The following results were obtained using compound 5b. Male Sprague-Dawley rats (225-275 g, Charles-River Saint-Constant, Quebec, Canada) were used. The animals were housed at constant room temperature and humidity under a 12 h light/dark cycle. Food and water were available ad libitum. All procedures were approved by local institutional care and use committees and followed the guidelines released by the Canadian Institutes of Health Research.
The FST is typically a two-day procedure in which rats are immersed in a water containing cylinder (18 cm in diameter; 40 cm high; water 30 cm deep, 25-27° C.) from which they cannot escape. On the first day, the rats are forced to remain in the water bath for 15 minutes (pre-test). During this time, the rats usually struggle to escape, but eventually adopt a posture of immobility in which they emit only the minimal movements necessary to keep their heads above water. The actual test (5 min) occurs 24 h later. When re-immersed in the water, immobility is increased; antidepressant treatments reliably reduce immobility during the test. The FST is both sensitive and selective for clinically effective antidepressants, has been repeatedly validated and is currently the most popular model for detecting antidepressant activity due to its ease of use, reliability and extremely high predictive validity (Lucki, I. (1997) Behav. Pharmacol. 8(6-7): 523-32).
At the end of the pre-test, the rats are removed from the water bath, dried with towels and placed in a warm enclosure for 15 min. The rats are then returned to their respective home cages. […] Behavior is recorded continuously throughout the 5 min test by a video camera positioned directly above the water cylinder. […] The total time for each type of behavior represents the times that a specified behavior is detected. […]

[2] = tested on: Adult Sprague Dawley rats; assay: Elevated plus maze (EPM); assay type: in vivo, rat; settings: for Head Dips / Percentage of time in Closed Arms / Percentage of time in Open Arms / Total time duration in the Closed Arms / Total time duration in the Open Arms: injected 60 min before test
Experimental: The maze is comprised of two open arms (50×10 cm) and two closed arms (50×10×40 cm) that extend from a common central platform (10×10 cm). The apparatus, made of wood (painted black) was elevated to a height of 80 cm above floor level. The closed arms are located opposite one another. Behavior is recorded over a period of 5 min using a video camera positioned directly above the maze and rated by an observer blind to drug conditions. The major measure of interest is the amount of time spent in the open arms. As an index of general activity and distribution, the total number of entries into both open and closed arms was also recorded. […] In order to increase the sensitivity of this test to anxiolytic activity, tests are carried out under normal room illumination (25 W bulb).

[3] = 5b 40, 60 and 80 mg/kg, injected 60 min before the test, vs vehicle

Compound: COc1cccc(N(CCNC(C)=O)c2ccccc2)c1 [5b, N-{2-[(3-Methoxyphenyl)-phenylamino]ethyl}acetamide]
- immobility [1]: significantly decreased
- tendency to climb or burst [1]: increased the tendency to climb or burst
- tendency to swim [1]: increased the tendency to swim
- Head Dips ([2]; 5b 40 mg/kg): 6.30 ± 0.98
- Percentage of time in Closed Arms ([2]; 5b 40 mg/kg): 82.30 ± 2.63%
- Percentage of time in Open Arms ([2]; 5b 40 mg/kg): 17.7 ± 2.6%
- Total time duration in the Closed Arms ([2]; 5b 40 mg/kg): 219.4 ± 9.38 sec/closed arm
- Total time duration in the Open Arms ([2]; 5b 40 mg/kg): 47.4 ± 6.86 sec/open arm
- Head Dips ([2]; 5b 60 mg/kg): 8.27 ± 1.42
- Percentage of time in Closed Arms ([2]; 5b 60 mg/kg): 74.47 ± 4.06 (P = 0.02) %
- Percentage of time in Open Arms ([2]; 5b 60 mg/kg): 25.5 ± 4.1 (P = 0.02) %
- Total time duration in the Closed Arms ([2]; 5b 60 mg/kg): 199.83 ± 11.33 (P = 0.01) sec/closed arm
- Total time duration in the Open Arms ([2]; 5b 60 mg/kg): 68.93 ± 11.02 (P = 0.02) sec/open arm
- Head Dips ([2]; 5b 80 mg/kg): 9.91 ± 1.50 (P = 0.02)
- Percentage of time in Closed Arms ([2]; 5b 80 mg/kg): 68.18 ± 4.84 (P = 0.007) %
- Percentage of time in Open Arms ([2]; 5b 80 mg/kg): 31.8 ± 4.8 (P = 0.003) %
- Total time duration in the Closed Arms ([2]; 5b 80 mg/kg): 181.68 ± 14.32 (P = 0.006) sec/closed arm
- Total time duration in the Open Arms ([2]; 5b 80 mg/kg): 79.16 ± 12.0 (P = 0.001) sec/open arm
- number of head dips (FIG. 4) ([2]; 5b 40, 60 and 80 mg/kg, injected 60 min before the test): increase in the number of head dips
- time in the open arms, percentage of time (FIG. 3) [2, 3]: spent more time in the open arms
- time in the open arms, total time expressed in seconds (FIG. 2) [2, 3]: spent more time in the open arms
